Data published in US12667098B2, “Ready to use plant treatment agent applicator, container and product” (UPL Corporation Limited, priority 2022, dated 2026).

What was measured:
Format in all cases: in vivo
Details in all cases: 3 L/ha of glufosinate ammonium 18.5%
Field horsetail = experiment: Weed control efficacy of glufosinate applied with the applicator: field horsetail
Description: (§1) The rate of application was 3 L/ha of glufosinate ammonium 18.5%.

Water foxtail = experiment: Weed control efficacy of glufosinate applied with the applicator: water foxtail
Description: as §1

Barnyard grass = experiment: Weed control efficacy of glufosinate applied with the applicator: barnyard grass
Description: as §1

Crabgrass = experiment: Weed control efficacy of glufosinate applied with the applicator: crabgrass
Description: as §1

Broadleaf dock = experiment: Weed control efficacy of glufosinate applied with the applicator: broadleaf dock
Description: as §1

[1] = 0.36% applied at 15 ml/m^2, applicator of the disclosure
[2] = 0.56% applied at 10 ml/m^2, applicator of the disclosure

CP(=O)(O)CCC(N)C(=O)O (racemic) [glufosinate, glufosinate ammonium]
Control %: Max weed efficacy (Field horsetail; [1]): 76%
Control %: Max weed efficacy (Field horsetail; [2]): 73%
Control %: Max weed efficacy (Water foxtail; [1]): 96%
Control %: Max weed efficacy (Water foxtail; [2]): 92%
Control %: Max weed efficacy (Barnyard grass; [1]): 59%
Control %: Max weed efficacy (Barnyard grass; [2]): 55%
Control %: Max weed efficacy (Crabgrass; [1]): 82%
Control %: Max weed efficacy (Crabgrass; [2]): 81%
Control %: Max weed efficacy (Broadleaf dock; [1]): 92%
Control %: Max weed efficacy (Broadleaf dock; [2]): 99%
